For three molecules, EC50 results are on record in US20120202877A1 (priority 2009, published 2012).

This assay concerns A/Paris/1170/2007 (H1N1, Y274). Put plainly: microbe, parasite or virus in culture. Particulars: Influenza A virus, H1N1, 72 h, read-out: EC50, 50% reduction of the average plaque diameter. It counts as cell-based.
As to `C=CCC1=C(C(=O)O)O[C@@H]([C@H](O)[C@H](O)CO)[C@H](NC(C)=O)[C@H]1O` [Compound 7, 5-Acetamido-2,6-anhydro-3,5-dideoxy-3-C-(prop-2′-enyl)-D-glycero-D-galacto-non-2-en-onic acid], the EC50 (as a rule, the midpoint of the concentration-response curve) worked out at 2200 µM.

Turning to `CC(=O)NC1C(O)C(CC=Cc2ccc(C)cc2)=C(C(=O)O)OC1C(O)C(O)CO` (stereo not drawn) [Compound 9d], the EC50 was determined as 40 µM.

In the case of `CC(=O)N[C@H]1[C@H]([C@H](O)[C@H](O)CO)OC(C(=O)O)=C[C@@H]1O` [Neu5Ac2en, reference compound], the EC50 came out at 8 µM.
